Data published in patent US20200383627A1, “TECHNIQUES FOR TREATMENT OF EPILEPTIC DISORDERS USING ELECTROPHYSIOLOGICAL BIOMARKERS AND RELATED SYSTEMS AND METHODS” (Children's Medical Center Corporation, priority 2017, published 2020).

Experiments:
Format in all cases: in vivo, human
[1] = system: patients with infantile spasms (IS); experiment: Quantitative EEG analysis (manual/automatic spike count, delta power) before and after ACTH treatment; settings: for Delta Power Change / Spike Count (Automatic) Change / Spike Count (Manual) Change / Delta Power Follow-up / Spike Count (Manual) Follow-up / Spike Count (Automatic) Follow-up: median
Protocol: In act 602, EEG data of a subject is obtained in any manner described above in relation to act 102 of FIG. 1. In act 604, a power spectral density (PSD) of at least part of the EEG data is calculated. The PSD, as discussed above, provides information on the amount of power present in various frequency components of the EEG signal(s). As one non-limiting example, a Fast Fourier Transform (FFT) of one or more EEG signals may be performed to determine the PSD of the EEG signals. Suitable parameters of the FFT operation may include a time constant of 0.16 seconds, a sampling rate of 64 Hz, and/or an FFT window duration of 2 seconds. In some embodiments, a high-pass, low-pass and/or band-pass filter may be applied to EEG signals prior to generation of a PSD. For instance, frequencies above 35 Hz may be filtered from the EEG signals and a PSD generated based on the resulting filtered EEG signals. It will be appreciated that, because an FFT operates on a window of time of the EEG signal(s), a number of PSDs may be calculated for a number of (overlapping or non-overlapping) windows of time of the EEG signal(s). As a result, act 604 may be performed numerous times.
In act 606, a delta power is calculated based on a PSD calculated in act 604. In cases where a number of PSDs are calculated in act 604, a number of delta powers may be calculated in act 606 by calculating a delta power for each PSD. In some cases, the delta power may vary over time within the EEG signals obtained from a subject in a single session. In these cases, it may be preferable to obtain a single average value of the delta power from the EEG signals by, for instance, calculating the mean of the calculated delta power. Delta power may be calculated by determining the total spectral power present within the calculated PSD data between the frequency bounds of the delta band (e.g., 0.5 Hz to 4 Hz). In some cases, the delta power may be calculated by determining a total area under the PSD curve within the delta band's frequency range.
In act 702, EEG data of a subject is obtained in any manner described above in relation to act 102 of FIG. 1. In act 704, a plurality of wavelet coefficients may be calculated based on the EEG data obtained in act 702. As discussed above, wavelet analysis may represent a particularly desirable approach to identifying spikes due to the natural ability of wavelets to identify rapid changes in a signal's amplitude. Act 704 may comprise any suitable approach to determining wavelet coefficients, including a continuous wavelet transform (CWT), a discrete wavelet transform (DWT) and/or a stationary wavelet transform (SWT). In some embodiments, an SWT analysis may be preferable because the results are invariant with respect to time shifts, although a greater redundancy in data may be produced compared with a DWT analysis, for example. Any suitable wavelet family may be utilized during act 704, including haar, daubechies, biorthogonal, coiflets and/or symlets (e.g., symlet4).
In act 706, spikes are identified from the wavelet coefficients determined in act 704. Act 706 may comprise identifying a number of instances in which the wavelet coefficients have values above or below a suitable threshold that represents an incidence of a spike, to produce a spike count. A spike frequency may be determined by dividing the spike count by the total amount of time represented by the EEG data.
Fifty out of these 150 patients had original EEG data available for analysis met criteria for the comparison of baseline and follow-up electrophysiological evaluation.
The magnitude of changes in the EEG parameters (spike quantification and slow wave activity) were more prominent in patients responders as compared to non-responders (MSC diff: 169 vs.44 spikes; p<0.001, ASCA diff: 157 vs.55 spikes; p<0.001, DP diff: 11.3 vs.2.3, Sf diff: 158 vs. 60; p<0.05 respectively in responders vs. non-responders, Table 5).

[2] = system: patients with infantile spasms (IS); experiment: Clinical outcome assessment of ACTH treatment (spasms frequency, response, relapse); parameters: Sf diff (spasms frequency, baseline minus follow-up) / Seizure frequency, Follow-up / Spasms frequency Follow-up / Spasms frequency Change: unit not given here; settings: for Spasms frequency Change / Spasms frequency Follow-up: median
Text: One-hundred-fifty (83 males; 55%) out of 170 patients were included for the clinical outcome assessment study. Mean age of spasms onset was 6.6 (±3.4) months. The mean time to treatment and follow-up duration were 39 (±50) and 38 (±49) days, respectively. Fifty-one out of 150 (34%) of patients had abnormal MRI findings.
The etiology of IS was: genetic/inborn metabolic in 28 (19%), unknown in 71 (47%), and structural brain abnormality (acquired and congenital) in 51 (34%). […] During the ACTH treatment, 86 (57%) patients were receiving concomitant ASMs (Table 1).
One hundred-one of 150 patients (67%) were deemed responders to the ACTH treatment at follow-up assessment, with IS cessation and resolution of hypsarrhythmia (Table 2). Thirty out of 101 initial responders (30%) experienced a relapse. Clinical parameters such as age of onset, sex, MRI finding, previous seizure history, previous and concomitant AED treatment, etiology, and baseline EEG were not prognostic factors for response and relapse (Tables 2-3).
(§1) Different criteria have been utilized to determine response to treatment in previous studies. Our EEG responder criteria are consistent with the criteria used in several previous studies, comprising IS freedom for at least seven consecutive days during treatment, and disappearance of hypsarrhythmia on follow-up EEG assessment. Although the presence of hypsarrhythmia has been considered crucial for the diagnosis and evaluating treatment response in IS, hypsarrhythmia may not be present at diagnosis in 25% of cases. Lack of hypsarrhythmia may be seen in patients with prior AED treatment, the early phase of IS, and late onset of spasms. […] Our findings highlight the importance of new quantitive biomarkers for evaluating EEGs in IS.

[3] = system: patients with infantile spasms (IS); experiment: EEG pattern (hypsarrhythmia) at follow-up assessment after ACTH treatment
Text: The presence of hypsarrhythmia is often used as a diagnostic criteria for IS, and is characterized by an abnormal interictal pattern consisting of high amplitude and irregular waves and spikes in a background of chaotic and disorganized activity within the EEG signals.
At baseline, 54 (36%) had hypsarrhythmia pattern, 75 (50%) had modified hypsarrhythmia pattern, and 21 (14%) had other abnormalities (without hypsarrhythmia) (Table 1). At the follow-up assessment, 58 patients with good response had abnormal EEG findings (abnormalities other than hypsarrhythmia, such as multifocal spikes or sharp waves, abnormal slow wave and fast activity). In terms of the EEG pattern, there was no difference between poor- and good responders, and between the patients who relapsed and the sustained responders (Tables 2-3).
as §1

[4] = Patients without Relapse (n: 20)
[5] = patients with sustained response
[6] = percentage of 101 initial responders

## Adrenocorticotropic hormone (SYSMEHFRWGKPVGKKRRPVKVYPNGAEDESAEAFPLEF; Corticotropin; UniProt P01189 138-176, looked up) [ACTH, polypeptide tropic hormone produced by and secreted by the anterior pituitary gland; used to treat infantile spasms]
[1]; Good responder (n: 31)
  Delta Power Change: 10.2
  Spike Count (Automatic) Change: 144
  Spike Count (Manual) Change: 153
[1]; Good responder (n: 31), baseline 24.7
  Delta Power Follow-up: 13.4
[1]; Good responder (n: 31), baseline 232
  Spike Count (Manual) Follow-up: 48
[1]; Good responder (n: 31), baseline 244
  Spike Count (Automatic) Follow-up: 53
[1]; Patients with Relapse (n: 11)
  Delta Power Change: 6
  Spike Count (Automatic) Change: 50
  Spike Count (Manual) Change: 51
[1]; Patients with Relapse (n: 11), baseline 23.6
  Delta Power Follow-up: 17.1
[1]; Patients with Relapse (n: 11), baseline 187
  Spike Count (Manual) Follow-up: 86
[1]; Patients with Relapse (n: 11), baseline 197
  Spike Count (Automatic) Follow-up: 117
[1]; [4]
  Delta Power Change: 14.6
  Spike Count (Automatic) Change: 176
  Spike Count (Manual) Change: 212
[1]; Patients without Relapse (n: 20), baseline 26.4
  Delta Power Follow-up: 10.5
[1]; Patients without Relapse (n: 20), baseline 247
  Spike Count (Manual) Follow-up: 10
[1]; Patients without Relapse (n: 20), baseline 257
  Spike Count (Automatic) Follow-up: 28.5
[1]; Poor responder (n: 19)
  Delta Power Change: 3.1
  Spike Count (Automatic) Change: 47
  Spike Count (Manual) Change: 52
[1]; Poor responder (n: 19), baseline 21.7
  Delta Power Follow-up: 19.5
[1]; Poor responder (n: 19), baseline 236
  Spike Count (Automatic) Follow-up: 152
[1]; Poor responder (n: 19), baseline 242
  Spike Count (Manual) Follow-up: 168
[1]; n: 50, baseline 25.1, p<0.001
  DP (delta power) at follow-up EEG: 17.2 μV
[1]; n: 50, mean, baseline 25.1
  Delta Power, Follow-up EEG: 17.2
[1]; n: 50, mean, baseline 232
  Spike Count Automatic, Follow-up EEG: 113
[1]; n: 50, mean, baseline 234
  Spike Count Manual, Follow-up EEG: 112
[1]; patients who relapsed
  ASCA diff (automatic spike count, baseline minus follow-up): 75
  DP diff (delta power, baseline minus follow-up): 5.4
  MSC diff (manual spike count, baseline minus follow-up): 76
[1]; [5]
  ASCA diff (automatic spike count, baseline minus follow-up): 202
  DP diff (delta power, baseline minus follow-up): 14.6
  MSC diff (manual spike count, baseline minus follow-up): 220
[1]; responders
  ASCA diff (automatic spike count, baseline minus follow-up): 157 spikes
  DP diff (delta power, baseline minus follow-up): 11.3
  MSC diff (manual spike count, baseline minus follow-up): 169 spikes
[2]; 30 of 101 initial responders
  relapse rate among initial responders: 30%
[2]; 101 of 150 patients, follow-up after day 14 of treatment
  response rate (responders to the ACTH treatment at follow-up: IS cessation and resolution of hypsarrhythmia): 67%
[2]; Good Response (n): 101, baseline 318
  Spasms frequency follow up/week: 80 /week
[2]; Good responder (n: 31)
  Spasms frequency Change: 84
[2]; Good responder (n: 31), baseline 122
  Spasms frequency Follow-up: 0
[2]; Patients with Relapse (n: 11)
  Spasms frequency Change: 11
[2]; Patients with Relapse (n: 11), baseline 140
  Spasms frequency Follow-up: 42
[2]; [4]
  Spasms frequency Change: 117
[2]; Patients without Relapse (n: 20), baseline 117
  Spasms frequency Follow-up: 0
[2]; Poor Response (n): 49, baseline 242
  Spasms frequency follow up/week: 233 /week
[2]; Poor responder (n: 19)
  Spasms frequency Change: 43
[2]; Poor responder (n: 19), baseline 105
  Spasms frequency Follow-up: 70
[2]; Relapse (n): 30, baseline 311
  Spasms frequency follow up/week: 270 /week
[2]; Without Relapse (n): 71, baseline 322
  Spasms frequency follow up/week: 0 /week
[2]; n: 50, mean, baseline 192
  Seizure frequency, Follow-up: 70
[2]; n: 150
  Clinical response No, number of patients: 49
[2]; n: 150, IS cessation and resolution of hypsarrhythmia at follow-up
  Clinical response Yes, number of patients: 101
[2]; n: 150, before treatment 294, p<0.001
  spasm frequency after ACTH treatment (median weekly): 130
[2]; n: 150, mean (SD), baseline 294/week
  Follow up spasms frequency: 130 /week
[2]; non-responders
  Sf diff (spasms frequency, baseline minus follow-up): 60
[2]; of 101 initial responders
  Relapse (if good response exist) No, number of patients: 71
  Relapse (if good response exist) Yes, number of patients: 30
[2]; [6]
  Relapse (if good response exist) No, share of patients: (70.3)
  Relapse (if good response exist) Yes, share of patients: (29.7)
[2]; percentage of n: 150
  Clinical response No, share of patients: (32.7)
  Clinical response Yes, share of patients: (67.3)
[2]; responders
  Sf diff (spasms frequency, baseline minus follow-up): 158
[3]; n: 150
  Follow-up EEG features: Normal EEG, number of patients: 44
[3]; n: 150, baseline 21
  Follow-up EEG features: Without Hypsarrhythmia, number of patients: 94
[3]; n: 150, baseline 54
  Follow-up EEG features: Hypsarrhythmia, number of patients: 6
[3]; n: 150, baseline 75
  Follow-up EEG features: Modified Hypsarrhythmia, number of patients: 6
[3]; percentage of n: 150
  Follow-up EEG features: Normal EEG, share of patients: (29.3)
[3]; percentage of n: 150, baseline (14)
  Follow-up EEG features: Without Hypsarrhythmia, share of patients: (62.7)
[3]; percentage of n: 150, baseline (36)
  Follow-up EEG features: Hypsarrhythmia, share of patients: (4)
[3]; percentage of n: 150, baseline (50)
  Follow-up EEG features: Modified Hypsarrhythmia, share of patients: (4)
